Test results published in the supplement of paper PMC11368000.

Legend:
Conditions in all cases: exposure time: 90 min
1516 [1] = donor line of iPSC-derived cardiomyocytes; test: POD (EC05) for increase in beat frequency (positive chronotrope) vs vehicle; higher = less potent (higher point of departure)
Protocol: (§1)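 Human iPSC-derived cardiomyocytes from 16 donors were exposed for 90 min at 37 °C to each PFAS at 0.1, 1, 10 and 100 µM in 0.5% DMSO, 384-well plates. Kinetic Ca2+ flux (FLIPR) and Hoechst nuclei counts were normalised to vehicle wells and fitted with a hierarchical Bayesian Hill model to give donor-specific PODs: EC05 for beat-rate increase or decrease and for decay-to-rise ratio increase (QT proxy), EC95 for peak-frequency loss (asystole), EC10 for total cell number loss. 0.03 µM is the lower bound.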

1083 = donor line of iPSC-derived cardiomyocytes; test: as above
Protocol: as §1

20032 = donor line of iPSC-derived cardiomyocytes; test: as above
Protocol: as §1

1392 = donor line of iPSC-derived cardiomyocytes; test: as above
Protocol: as §1

1434 = donor line of iPSC-derived cardiomyocytes; test: as above
Protocol: as §1

1535 = donor line of iPSC-derived cardiomyocytes; test: as above
Protocol: as §1

30145 = donor line of iPSC-derived cardiomyocytes; test: as above
Protocol: as §1

1531 [2] = donor line of iPSC-derived cardiomyocytes; test: as above
Protocol: as §1

1565 = donor line of iPSC-derived cardiomyocytes; test: as above
Protocol: as §1

11235 = donor line of iPSC-derived cardiomyocytes; test: as above
Protocol: as §1

1118 = donor line of iPSC-derived cardiomyocytes; test: as above
Protocol: as §1

1368 = donor line of iPSC-derived cardiomyocytes; test: as above
Protocol: as §1

1518 [3] = donor line of iPSC-derived cardiomyocytes; test: as above
Protocol: as §1

30171 = donor line of iPSC-derived cardiomyocytes; test: as above
Protocol: as §1

1309 [4] = donor line of iPSC-derived cardiomyocytes; test: as above
Protocol: as §1

20084 = donor line of iPSC-derived cardiomyocytes; test: as above
Protocol: as §1

1516 [5] = test: POD (EC05) for increase in Ca2+ transient decay-to-rise ratio (QT prolongation) vs vehicle; higher = less potent (higher point of departure)
How it was run: (§2)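 Cardiomyocytes from human iPSCs of 16 donors spent 14 days in gelatin-coated 384-well plates before 2 h of fluorescent Ca2+ dye loading. They were then held for 90 min at 37 °C at final concentrations of 0.1, 1, 10 and 100 µM containing 0.5% DMSO, and Ca2+ flux was read on a FLIPR Tetra (8 frames/s, 100 s) before and after. Donor-level points of departure were taken from hierarchical Bayesian Hill fits to vehicle-normalised beat frequency, decay-to-rise ratio or peak frequency. For these, a 5% change was the threshold, or a 95% loss for peak frequency.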

1531 [6] = test: as above
How it was run: as §2

1518 [7] = test: as above
How it was run: as §2

1309 [8] = test: as above
How it was run: as §2

| SMILES | POD vs vehicle 1516 [1] [µM] | POD vs vehicle 1083 [µM] | POD vs vehicle 20032 [µM] | POD vs vehicle 1392 [µM] | POD vs vehicle 1434 [µM] | POD vs vehicle 1535 [µM] | POD vs vehicle 30145 [µM] | POD vs vehicle 1531 [2] [µM] | POD vs vehicle 1565 [µM] | POD vs vehicle 11235 [µM] | POD vs vehicle 1118 [µM] | POD vs vehicle 1368 [µM] | POD vs vehicle 1518 [3] [µM] | POD vs vehicle 30171 [µM] | POD vs vehicle 1309 [4] [µM] | POD vs vehicle 20084 [µM] | POD vs vehicle 1516 [5] [µM] | POD vs vehicle 1531 [6] [µM] | POD vs vehicle 1518 [7] [µM] | POD vs vehicle 1309 [8] [µM] |
| --- | --- | --- | --- | --- | --- | --- | --- | --- | --- | --- | --- | --- | --- | --- | --- | --- | --- | --- | --- | --- |
| O=P(O)(O)CCC(F)(F)C(F)(F)C(F)(F)C(F)(F)C(F)(F)C(F)(F)C(F)(F)C(F)(F)F [((Perfluorooctyl)ethyl)phosphonic_acid] | > 100 | > 100 | > 100 | > 100 | > 100 | > 100 | > 100 | > 100 | > 100 | > 100 | > 100 | > 100 | > 100 | > 100 | > 100 | > 100 | > 100 | > 100 | > 100 | > 100 |
| O=S(=O)(O)CCC(F)(F)C(F)(F)C(F)(F)C(F)(F)C(F)(F)C(F)(F)C(F)(F)C(F)(F)F [8:2 Fluorotelomer sulfonic acid] | > 100 | 27.8 | > 100 | > 100 | > 100 | > 100 | > 100 | > 100 | > 100 | > 100 | > 100 | 77.4 | > 100 | > 100 | > 100 | > 100 | 38 | 47.4 | > 100 | > 100 |
| O=C(O)C(F)(F)C(F)(F)C(F)(F)C(F)(F)C(F)(F)C(F)(F)C(F)(F)F [Perfluorooctanoic_acid] | > 100 | > 100 | > 100 | > 100 | > 100 | > 100 | > 100 | > 100 | > 100 | > 100 | > 100 | > 100 | > 100 | > 100 | > 100 | > 100 | > 100 | > 100 | > 100 | > 100 |
| O=C(O)C(F)(F)C(F)(F)OC(F)(F)F [Perfluoro-3-methoxypropanoic_acid] | > 100 | > 100 | > 100 | > 100 | > 100 | > 100 | > 100 | > 100 | > 100 | > 100 | > 100 | > 100 | > 100 | > 100 | > 100 | > 100 | > 100 | > 100 | > 100 | > 100 |
| NC(=O)C(F)(F)C(F)(F)C(F)(F)C(F)(F)C(N)=O [Octafluoroadipamide] | > 100 | > 100 | > 100 | > 100 | > 100 | > 100 | > 100 | > 100 | > 100 | > 100 | > 100 | > 100 | > 100 | > 100 | > 100 | > 100 | > 100 | > 100 | > 100 | > 100 |
| OCCC(F)(F)C(F)(F)C(F)(F)C(F)(F)C(F)(F)C(F)(F)C(F)(F)C(F)(F)F [8:2 Fluorotelomer alcohol] | > 100 | > 100 | > 100 | > 100 | > 100 | > 100 | > 100 | > 100 | > 100 | > 100 | > 100 | > 100 | > 100 | > 100 | > 100 | > 100 | > 100 | > 100 | > 100 | > 100 |
| O=C(O)CCC(F)(F)C(F)(F)C(F)(F)C(F)(F)C(F)(F)C(F)(F)C(F)(F)F [3-Perfluoroheptylpropanoic_acid] | > 100 | > 100 | > 100 | > 100 | > 100 | > 100 | > 100 | > 100 | > 100 | > 100 | > 100 | > 100 | > 100 | > 100 | > 100 | > 100 | > 100 | 25.4 | > 100 | > 100 |
| O=C(O)CCC(F)(F)C(F)(F)C(F)(F)C(F)(F)C(F)(F)F [2H,2H,3H,3H-Perfluorooctanoic_acid] | > 100 | > 100 | > 100 | > 100 | > 100 | > 100 | > 100 | > 100 | > 100 | > 100 | > 100 | > 100 | > 100 | > 100 | > 100 | > 100 | 43.9 | 17 | > 100 | > 100 |
| CC(O)C(F)(F)C(F)(F)F (stereo not given) [1-Pentafluoroethylethanol] | > 100 | > 100 | > 100 | > 100 | > 100 | > 100 | > 100 | > 100 | > 100 | > 100 | > 100 | > 100 | > 100 | > 100 | > 100 | > 100 | > 100 | > 100 | > 100 | > 100 |
| O=C(O)C(F)(F)C(F)(F)C(F)(F)C(F)(F)C(F)(F)C(F)(F)C(F)(F)C(F)(F)C(F)(F)F [Perfluorodecanoic_acid] | > 100 | > 100 | > 100 | > 100 | > 100 | > 100 | > 100 | > 100 | > 100 | > 100 | > 100 | > 100 | > 100 | > 100 | > 100 | > 100 | > 100 | > 100 | > 100 | > 100 |
| NS(=O)(=O)C(F)(F)C(F)(F)C(F)(F)C(F)(F)C(F)(F)C(F)(F)F [Perfluorohexanesulfonamide] | > 100 | > 100 | > 100 | > 100 | > 100 | > 100 | > 100 | > 100 | > 100 | > 100 | > 100 | > 100 | > 100 | > 100 | > 100 | > 100 | > 100 | > 100 | > 100 | > 100 |
| O=C(O)C(F)(F)C(F)(F)C(F)(F)F [Perfluorobutanoic_acid] | > 100 | > 100 | > 100 | > 100 | > 100 | > 100 | > 100 | > 100 | > 100 | > 100 | > 100 | > 100 | > 100 | > 100 | > 100 | > 100 | > 100 | > 100 | > 100 | > 100 |
| O=C(O)C(F)(F)C(F)(F)C(F)(F)C(F)(F)F [Perfluoropentanoic_acid] | > 100 | > 100 | > 100 | > 100 | > 100 | > 100 | > 100 | > 100 | > 100 | > 100 | > 100 | > 100 | > 100 | > 100 | > 100 | > 100 | > 100 | > 100 | > 100 | > 100 |
| O=C(O)C(F)(F)C(F)(F)F [Perfluoropropanoic_acid] | > 100 | > 100 | > 100 | > 100 | > 100 | > 100 | > 100 | > 100 | > 100 | > 100 | > 100 | > 100 | > 100 | > 100 | > 100 | > 100 | > 100 | 0.307 | > 100 | > 100 |
| O=C(O)C=C(C(F)(F)F)C(F)(F)F [3,3-Bis(trifluoromethyl)-2-propenoic_acid] | > 100 | > 100 | > 100 | > 100 | > 100 | > 100 | > 100 | > 100 | > 100 | > 100 | > 100 | > 100 | > 100 | > 100 | > 100 | > 100 | > 100 | > 100 | > 100 | > 100 |
| O=C(O)C=CC(F)(C(F)(F)F)C(F)(F)F [3-(Perfluoroisopropyl)-2-propenoic_acid] | > 100 | > 100 | > 100 | > 100 | > 100 | > 100 | > 100 | > 100 | > 100 | > 100 | > 100 | > 100 | > 100 | > 100 | > 100 | > 100 | > 100 | > 100 | > 100 | > 100 |
| OCC(F)(F)C(F)(F)C(F)(F)C(F)(F)C(F)(F)C(F)F [Dodecafluoroheptanol] | > 100 | > 100 | > 100 | > 100 | > 100 | > 100 | > 100 | > 100 | > 100 | > 100 | > 100 | > 100 | > 100 | > 100 | > 100 | > 100 | > 100 | > 100 | > 100 | > 100 |
| O=S(=O)(O)CCC(F)(F)C(F)(F)C(F)(F)C(F)(F)C(F)(F)C(F)(F)F [6:2 Fluorotelomer sulfonic acid] | > 100 | > 100 | > 100 | > 100 | > 100 | > 100 | > 100 | > 100 | > 100 | > 100 | > 100 | > 100 | > 100 | > 100 | > 100 | > 100 | > 100 | > 100 | > 100 | > 100 |
| OCCC(F)(F)C(F)(F)C(F)(F)C(F)(F)C(F)(F)C(F)(F)F [6:2 Fluorotelomer alcohol] | > 100 | > 100 | > 100 | > 100 | 1.73 | 5.24 | > 100 | > 100 | > 100 | > 100 | > 100 | > 100 | > 100 | > 100 | > 100 | > 100 | > 100 | > 100 | > 100 | > 100 |
